This is an account of results in patent publication US8017767B2, “Sucralose composition” (Tate & Lyle Public Limited Company, priority 2000, dated 2011).

A short description of the series: Accelerated stability test (50° C.) with pH stability test of sucralose sample solution. Type of series: physicochemical. Conditions: for Days to pH Failure: 50° C., WHIRLPAK polyethylene bags, failure = pH drop ≧1.0; for Days to pH Failure / Initial pH: Example 1, sodium acetate in mother liquor varied; for Initial pH: sample solution (5 g in 50 ml pH-adjusted water) at time zero; for Initial pH difference: sample solution vs pH-adjusted water at time zero, (−) pH drop, (+) pH gain, Example 1. The source says: Label seven 6 oz. and seven 18 oz. WHIRLPAK® polyethylene bags with indelible marker for each batch being tested for stability. Accurately weigh 25 g±0.01 g of sucralose into each 6 oz. WHIRLPAK® polyethylene bag. Heat or impulse seal the 6 oz. bag to ensure air tightness. Cut off any excess polyethylene at the top of the bag above the seal. Place the 6 oz. sealed bag into the 18 oz. bag and heat or impulse seal the 18 oz. bag to ensure air tightness. Roll down the top of the 18 oz. bag above the seal and bend the metal ties to form hooks.
Place the prepared bags into an oven stabilized at 50° C.±0.5° C. by hanging them from racks by the bag hooks. The bags must be freely suspended and not touch anything. Record the time samples are placed into the oven.
The pH stability test is conducted on the sucralose at time zero (the day the samples are placed in the oven, before the sucralose is exposed to elevated temperature) and every 24 hours until the batch being tested fails the test.
Place approximately 100 ml of deionized water into a 150 ml beaker. Using 0.1 N hydrochloric acid and/or 0.1 N sodium hydroxide, adjust the pH of the water to be between 5.8 and 6.0. Record the pH reading.
Accurately weigh 5 g±0.001 g of the product to be tested and transfer it to a 50 ml volumetric flask. Dissolve and bring to the mark by adding pH-adjusted water. If the sample to be tested is one that has been exposed to heat, remove one bag of the batch being tested from the oven and allow it to cool to room temperature before opening and sampling.
Pour the solution into a 100 ml beaker containing a stir bar, and slowly stir the solution on a magnetic stirrer. Immerse the pH electrode in the sample, allow the pH reading to stabilize, and record the pH reading of the sample. If no pH drop is observed after all the bags have been tested, the experiment is void and the test must repeated with a larger number of bags.
Record (to one decimal place) the pH of both the pH-adjusted water used and the sample sucralose solution. Subtract the pH of the […]. Report the result as (−) for a pH drop and (+) for a pH gain, e.g.:
The sample fails the test if there is a pH drop of 1.0 pH unit or more. The pH stability of the batch is defined as the number of days until the pH drop between the sample solution and that of the pH adjusted water is ≧1.0.
Samples of sucralose were tested for stability using the above procedures, but using bags of different moisture permeability. All other experimental details were the same. The TYVEK®/polyethylene bags are permeable; the WHIRLPAK® bags are less permeable. The A8080 bag consists of aluminum foil laminated to low-density polyethylene, which makes it very impermeable to moisture.

SMILES strings stand for the structures.

In the case of `OC[C@H]1O[C@H](O[C@]2(CCl)O[C@H](CCl)[C@@H](O)[C@@H]2O)[C@H](O)[C@@H](O)[C@H]1Cl` [Sample 1, 4,1′,6′-trichloro-4,1′,6′-trideoxy-galactosucrose], the “Days to pH Failure” value was 6 Days, the “Initial pH” value was 5.72 and the “Initial pH difference” value is −0.20.
Taken in the same sequence, the figures for `OC[C@H]1O[C@H](O[C@]2(CCl)O[C@H](CCl)[C@@H](O)[C@@H]2O)[C@H](O)[C@@H](O)[C@H]1Cl` [Sample 2, 4,1′,6′-trichloro-4,1′,6′-trideoxy-galactosucrose] were 6 Days, 5.73 and −0.19.
Taken in the same sequence, the figures for `OC[C@H]1O[C@H](O[C@]2(CCl)O[C@H](CCl)[C@@H](O)[C@@H]2O)[C@H](O)[C@@H](O)[C@H]1Cl` [Sample 3, 4,1′,6′-trichloro-4,1′,6′-trideoxy-galactosucrose] were 6 Days, 5.44 and −0.48.
Taken in the same sequence, the figures for `OC[C@H]1O[C@H](O[C@]2(CCl)O[C@H](CCl)[C@@H](O)[C@@H]2O)[C@H](O)[C@@H](O)[C@H]1Cl` [Sample 4, 4,1′,6′-trichloro-4,1′,6′-trideoxy-galactosucrose] were 6 Days, 5.64 and −0.28.
As for `OC[C@H]1O[C@H](O[C@]2(CCl)O[C@H](CCl)[C@@H](O)[C@@H]2O)[C@H](O)[C@@H](O)[C@H]1Cl` [Sample 5, 4,1′,6′-trichloro-4,1′,6′-trideoxy-galactosucrose], the “Days to pH Failure” value is reported as 6 Days, the “Initial pH” value is listed as 5.64 and the “Initial pH difference” value is recorded as −0.28.
Taken in the same sequence, the figures for `OC[C@H]1O[C@H](O[C@]2(CCl)O[C@H](CCl)[C@@H](O)[C@@H]2O)[C@H](O)[C@@H](O)[C@H]1Cl` [Sample 6, 4,1′,6′-trichloro-4,1′,6′-trideoxy-galactosucrose] were 4 Days, 5.53 and −0.39.
Taken in the same sequence, the figures for `OC[C@H]1O[C@H](O[C@]2(CCl)O[C@H](CCl)[C@@H](O)[C@@H]2O)[C@H](O)[C@@H](O)[C@H]1Cl` [Sample 7, 4,1′,6′-trichloro-4,1′,6′-trideoxy-galactosucrose] were 5 Days, 5.70 and −0.22.
On the same counts, the results for `OC[C@H]1O[C@H](O[C@]2(CCl)O[C@H](CCl)[C@@H](O)[C@@H]2O)[C@H](O)[C@@H](O)[C@H]1Cl` [Sample 8, 4,1′,6′-trichloro-4,1′,6′-trideoxy-galactosucrose] are 5 Days, 5.19 and −0.73.
`OC[C@H]1O[C@H](O[C@]2(CCl)O[C@H](CCl)[C@@H](O)[C@@H]2O)[C@H](O)[C@@H](O)[C@H]1Cl` [Sample 9, 4,1′,6′-trichloro-4,1′,6′-trideoxy-galactosucrose]: the “Days to pH Failure” value is 7 Days, the “Initial pH” value was determined as 6.19 and the “Initial pH difference” value is listed as “+0.23”.
On the same counts, the results for `OC[C@H]1O[C@H](O[C@]2(CCl)O[C@H](CCl)[C@@H](O)[C@@H]2O)[C@H](O)[C@@H](O)[C@H]1Cl` [Sample 10, 4,1′,6′-trichloro-4,1′,6′-trideoxy-galactosucrose] are 5 Days, 5.90 and −0.05.
On the same counts, the results for `OC[C@H]1O[C@H](O[C@]2(CCl)O[C@H](CCl)[C@@H](O)[C@@H]2O)[C@H](O)[C@@H](O)[C@H]1Cl` [Sample 11, 4,1′,6′-trichloro-4,1′,6′-trideoxy-galactosucrose] are 6 Days, 6.05 and “+0.10”.
On the same counts, the results for `OC[C@H]1O[C@H](O[C@]2(CCl)O[C@H](CCl)[C@@H](O)[C@@H]2O)[C@H](O)[C@@H](O)[C@H]1Cl` [Sample 12, 4,1′,6′-trichloro-4,1′,6′-trideoxy-galactosucrose] are 6 Days, 5.85 and −0.10.
As for `OC[C@H]1O[C@H](O[C@]2(CCl)O[C@H](CCl)[C@@H](O)[C@@H]2O)[C@H](O)[C@@H](O)[C@H]1Cl` [Sample 13, 4,1′,6′-trichloro-4,1′,6′-trideoxy-galactosucrose], the “Days to pH Failure” value worked out at 5 Days, the “Initial pH” value amounted to 5.85 and the “Initial pH difference” value is given as −0.10.
For `OC[C@H]1O[C@H](O[C@]2(CCl)O[C@H](CCl)[C@@H](O)[C@@H]2O)[C@H](O)[C@@H](O)[C@H]1Cl` [Sample 14, 4,1′,6′-trichloro-4,1′,6′-trideoxy-galactosucrose], the “Days to pH Failure” value came out at 6 Days, the “Initial pH” value is 5.95 and the “Initial pH difference” value is listed as “+0.02”.
On the same counts, the results for `OC[C@H]1O[C@H](O[C@]2(CCl)O[C@H](CCl)[C@@H](O)[C@@H]2O)[C@H](O)[C@@H](O)[C@H]1Cl` [Sample 15, 4,1′,6′-trichloro-4,1′,6′-trideoxy-galactosucrose] are 5 Days, 6.06 and “+0.13”.
As to `OC[C@H]1O[C@H](O[C@]2(CCl)O[C@H](CCl)[C@@H](O)[C@@H]2O)[C@H](O)[C@@H](O)[C@H]1Cl` [Sample 16, 4,1′,6′-trichloro-4,1′,6′-trideoxy-galactosucrose], the “Days to pH Failure” value is 6 Days, the “Initial pH” value is recorded as 6.20 and the “Initial pH difference” value is given as “+0.27”.
On the same counts, the results for `OC[C@H]1O[C@H](O[C@]2(CCl)O[C@H](CCl)[C@@H](O)[C@@H]2O)[C@H](O)[C@@H](O)[C@H]1Cl` [Sample 17, 4,1′,6′-trichloro-4,1′,6′-trideoxy-galactosucrose] are 6 Days, 6.03 and “+0.10”.
For `OC[C@H]1O[C@H](O[C@]2(CCl)O[C@H](CCl)[C@@H](O)[C@@H]2O)[C@H](O)[C@@H](O)[C@H]1Cl` [Sample 18, 4,1′,6′-trichloro-4,1′,6′-trideoxy-galactosucrose], the “Days to pH Failure” value was determined as 6 Days, the “Initial pH” value is given as 6.00 and the “Initial pH difference” value is “+0.07”.
Regarding `OC[C@H]1O[C@H](O[C@]2(CCl)O[C@H](CCl)[C@@H](O)[C@@H]2O)[C@H](O)[C@@H](O)[C@H]1Cl` [Sample 19, 4,1′,6′-trichloro-4,1′,6′-trideoxy-galactosucrose], the “Days to pH Failure” value came to 6 Days, the “Initial pH” value turned out to be 6.06 and the “Initial pH difference” value was “+0.13”.
In the case of `OC[C@H]1O[C@H](O[C@]2(CCl)O[C@H](CCl)[C@@H](O)[C@@H]2O)[C@H](O)[C@@H](O)[C@H]1Cl` [Sample 20, 4,1′,6′-trichloro-4,1′,6′-trideoxy-galactosucrose], the “Days to pH Failure” value came out at 6 Days, the “Initial pH” value is given as 6.09 and the “Initial pH difference” value is recorded as “+0.08”.
